For test [1], the system named is whole tobacco leaf. The test can be described thus: Total TSNA in cured tobacco, ferulic acid, ethanol and surfactant sprayed two days before harvest (Example 4). The note with it: ferulic acid + ethanol + DE FAC 820, versus untreated (Table 4). Here is the method:
Tobacco plants were treated by spraying them in the field with an aqueous solution comprising 0.25% wt. by vol. of ferulic acid, 5 gallons ethanol (95%), 250 gallons water and 0.25% by vol. of a non-ionic surfactant (DE FAC 820). This gave a 2% ethanol solution. Fifty (50) gallons of aqueous solution was applied per acre for the treated plants.
Treated and non-treated tobacco was harvested and cured in a conventional dark fire tobacco barn with manual vents for aeration for 6 weeks, one week of natural ventilation followed by five weeks of wood fire curing in a conventional manner. The curing was conducted in a conventional curing barn as is typically found in the dark tobacco production regions of Kentucky and Tennessee. Both the treated and untreated tobacco were the same variety and harvested at the same time.
Random leaves were removed from the cured treated and cured untreated tobacco and TSNA was measured in accordance with Example 1.

The subject of test [2] is whole tobacco leaf. In words: TSNA in cured tobacco, ferulic acid added to the smoke during fire curing (Example 6). The note with it: ferulic acid in wood smoke, versus untreated (Table 6). The source says: In a conventional dark fire tobacco barn, wood lumber was laid on the floor of the barn and sawdust was spread on top of the wood. The lumber was set on fire and the sawdust smoldered and generated wood smoke. Ferulic acid, solid granular, from a conventional source, was sprinkled over the top of the sawdust at the start of the fire curing process and was applied in an amount of one pound per acre of tobacco in the barn, about 5000 tobacco plants. The fire curing started one or two days after the tobacco was harvested and hung in the barn. The ferulic acid lasted about one week on the sawdust during the fire curing.
The fire curing was conducted for a total of 40 days.
After curing, random leaves were collected from the treated tobacco and from the untreated tobacco. Both treated and untreated tobacco were of the same variety and came from two different barns. The untreated tobacco came from a different barn but was fire cured in the same manner as the treated tobacco except for the ferulic acid treatment.

For the compound `COc1cc(C=CC(=O)O)ccc1O` [ferulic acid, 4-hydroxy-3-methoxy cinnamic acid], the “reduction in TSNA” value with whole tobacco leaf [1] is 85%; with whole tobacco leaf [2], 35%.
